Values of other authors, collected in US9533949B2, “Processes for the preparation of 3-alkyl indoles” (APOTEX PHARMACHEM INC., priority 2012, dated 2017).

Assays:
[1] = target: T1, insulin-like growth factor-I receptor (IGF-1R) (Homo sapiens, UniProt P08069); details: allosteric inhibitor
[2] = target: T1, insulin-like growth factor-I receptor (IGF-1R); details: allosteric inhibitor; remark: listed apart in the source
[3] = target: insulin receptor (Homo sapiens, UniProt P06213)
[4] = target: D2 receptor (Homo sapiens, UniProt P14416); details: selectivity to other GPCRs
D2 receptor, sequence (P14416 whole entry): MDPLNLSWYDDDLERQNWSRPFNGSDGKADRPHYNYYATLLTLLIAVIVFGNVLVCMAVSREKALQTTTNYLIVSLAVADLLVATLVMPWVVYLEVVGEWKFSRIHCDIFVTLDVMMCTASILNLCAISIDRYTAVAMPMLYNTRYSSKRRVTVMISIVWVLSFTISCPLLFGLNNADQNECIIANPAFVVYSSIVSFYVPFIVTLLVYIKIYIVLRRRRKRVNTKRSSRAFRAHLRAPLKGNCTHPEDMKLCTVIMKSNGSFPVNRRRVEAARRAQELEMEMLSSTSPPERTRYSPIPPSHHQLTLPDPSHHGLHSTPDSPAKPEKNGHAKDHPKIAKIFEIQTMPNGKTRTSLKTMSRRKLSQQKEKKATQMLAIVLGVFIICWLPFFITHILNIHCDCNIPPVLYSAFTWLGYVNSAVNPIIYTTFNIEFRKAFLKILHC

T1 sequence (P08069 31-1367, species assumed): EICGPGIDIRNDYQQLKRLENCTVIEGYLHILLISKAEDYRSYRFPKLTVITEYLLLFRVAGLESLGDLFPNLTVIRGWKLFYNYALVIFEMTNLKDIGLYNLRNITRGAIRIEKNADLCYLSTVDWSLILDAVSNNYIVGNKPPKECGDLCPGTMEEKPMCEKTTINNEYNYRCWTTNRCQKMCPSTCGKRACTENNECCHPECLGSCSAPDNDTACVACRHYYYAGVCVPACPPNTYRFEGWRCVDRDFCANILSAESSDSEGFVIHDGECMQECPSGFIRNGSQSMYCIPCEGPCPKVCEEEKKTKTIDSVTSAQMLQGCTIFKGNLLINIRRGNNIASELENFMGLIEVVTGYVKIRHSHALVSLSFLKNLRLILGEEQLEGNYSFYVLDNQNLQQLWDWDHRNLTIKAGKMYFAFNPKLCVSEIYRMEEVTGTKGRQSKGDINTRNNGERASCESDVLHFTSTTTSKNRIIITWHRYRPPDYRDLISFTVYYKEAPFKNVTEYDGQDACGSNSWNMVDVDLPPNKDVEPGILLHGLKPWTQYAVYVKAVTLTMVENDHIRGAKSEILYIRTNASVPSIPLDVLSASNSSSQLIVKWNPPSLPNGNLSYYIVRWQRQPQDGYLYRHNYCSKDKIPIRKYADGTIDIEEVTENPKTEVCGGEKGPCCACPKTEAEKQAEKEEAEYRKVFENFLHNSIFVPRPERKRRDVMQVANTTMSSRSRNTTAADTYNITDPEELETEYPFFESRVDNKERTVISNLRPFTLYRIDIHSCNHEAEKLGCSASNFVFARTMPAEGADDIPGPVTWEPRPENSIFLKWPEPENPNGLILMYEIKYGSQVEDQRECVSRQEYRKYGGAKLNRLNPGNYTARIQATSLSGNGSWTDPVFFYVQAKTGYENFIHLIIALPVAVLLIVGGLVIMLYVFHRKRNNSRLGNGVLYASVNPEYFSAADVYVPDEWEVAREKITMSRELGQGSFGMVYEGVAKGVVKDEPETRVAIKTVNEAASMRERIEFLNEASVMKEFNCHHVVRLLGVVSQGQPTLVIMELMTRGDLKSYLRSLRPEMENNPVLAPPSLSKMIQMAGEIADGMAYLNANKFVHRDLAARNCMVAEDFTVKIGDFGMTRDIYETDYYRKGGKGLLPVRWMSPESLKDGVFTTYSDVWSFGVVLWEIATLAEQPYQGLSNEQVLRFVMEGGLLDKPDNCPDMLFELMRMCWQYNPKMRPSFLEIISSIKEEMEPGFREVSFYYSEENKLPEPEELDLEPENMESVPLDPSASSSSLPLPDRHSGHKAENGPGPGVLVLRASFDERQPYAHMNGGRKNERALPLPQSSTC
insulin receptor, sequence (P06213 28-1382, species assumed): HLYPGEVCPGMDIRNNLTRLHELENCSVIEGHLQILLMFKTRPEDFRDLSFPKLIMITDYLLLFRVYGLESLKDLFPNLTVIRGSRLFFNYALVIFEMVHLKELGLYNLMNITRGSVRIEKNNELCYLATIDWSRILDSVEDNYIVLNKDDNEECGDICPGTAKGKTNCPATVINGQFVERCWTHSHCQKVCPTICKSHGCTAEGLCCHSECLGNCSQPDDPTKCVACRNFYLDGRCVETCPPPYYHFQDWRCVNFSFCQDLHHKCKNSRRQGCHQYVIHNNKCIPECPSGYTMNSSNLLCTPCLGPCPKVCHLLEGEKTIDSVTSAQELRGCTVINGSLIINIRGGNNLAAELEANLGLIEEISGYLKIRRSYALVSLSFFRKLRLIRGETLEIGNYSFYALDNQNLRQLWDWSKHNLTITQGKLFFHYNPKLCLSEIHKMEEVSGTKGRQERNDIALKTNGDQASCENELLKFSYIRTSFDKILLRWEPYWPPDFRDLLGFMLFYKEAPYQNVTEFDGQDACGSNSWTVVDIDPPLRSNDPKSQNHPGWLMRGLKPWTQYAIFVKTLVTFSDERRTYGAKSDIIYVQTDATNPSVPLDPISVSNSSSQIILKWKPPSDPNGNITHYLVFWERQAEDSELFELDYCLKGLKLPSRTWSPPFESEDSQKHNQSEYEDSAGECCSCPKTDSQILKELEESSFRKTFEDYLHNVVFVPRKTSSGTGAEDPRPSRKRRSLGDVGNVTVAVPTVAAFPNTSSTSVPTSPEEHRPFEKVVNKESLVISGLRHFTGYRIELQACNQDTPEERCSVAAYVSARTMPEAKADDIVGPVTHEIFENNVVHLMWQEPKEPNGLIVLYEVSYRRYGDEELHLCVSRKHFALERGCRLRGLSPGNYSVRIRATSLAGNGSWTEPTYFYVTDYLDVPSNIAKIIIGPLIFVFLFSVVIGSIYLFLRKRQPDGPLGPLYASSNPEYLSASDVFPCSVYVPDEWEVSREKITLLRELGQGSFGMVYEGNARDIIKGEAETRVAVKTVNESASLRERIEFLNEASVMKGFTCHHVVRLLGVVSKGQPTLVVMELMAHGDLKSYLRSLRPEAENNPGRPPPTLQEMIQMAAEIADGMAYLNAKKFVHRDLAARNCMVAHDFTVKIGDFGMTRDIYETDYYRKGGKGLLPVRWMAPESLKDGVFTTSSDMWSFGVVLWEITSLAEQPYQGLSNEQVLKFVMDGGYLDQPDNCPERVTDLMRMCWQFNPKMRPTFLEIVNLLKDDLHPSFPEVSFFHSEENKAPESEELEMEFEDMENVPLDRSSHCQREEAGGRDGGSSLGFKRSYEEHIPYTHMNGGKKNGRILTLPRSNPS

| SMILES | biochemical IGF-1R activity [1] | cellular IGF-1R activity [2] | no relevant interference with cellular insulin receptor signaling up to [3] [µM] | IC50 [4] [nM] |
| --- | --- | --- | --- | --- |
| N#Cc1ccc2[nH]cc(CCCCN3CCC(NC(=O)c4cccc5c(C#N)c[nH]c45)CC3)c2c1 [compound 10, 3-Cyano-1H-indole-7-carboxylic acid {1-[4-(5-cyano-1H-indol-3-yl)butyl]piperidin-4-yl}amide] | nanomolar | micromolar | > 30 |  |
| N#Cc1ccc2[nH]cc(CCCCN3CCN(c4ccc5oc(C(N)=O)cc5c4)CC3)c2c1 [vilazodone, 5-{4-[4-(5-Cyano-3-indolyl)butyl]-1-piperazinyl}benzofuran-2-carboxamide] |  |  |  | 666 |
